Assay: Solid-state stability of crystalline forms on storage, XRPD compared before and after
Assay type: physicochemical
Experimental: X-Ray powder diffraction patterns (XRPD) were obtained for the crystalline form described herein under the following conditions: • Equipment: Rigaku Smart-Lab • Scan range: 2 to 40° (2θ) • Scan speed: 3° (2θ) per minute • Step width: 0.02° (2θ) • X-ray information: Cu Kα, λ=1.54 Å, 40 kV/44 mA
Approximately 5-10 mg of the sample was gently applied on a low background Si holder and subjected to XRPD scanning.
In addition, another sample of 5-10 milligrams of crystalline Form A was maintained at a temperature of 22±2° C. and relative humidity of 59% for 144 hours.
A sample of 5-10 milligrams of crystalline Form B was maintained at a temperature of 22±2° C. and relative humidity of 59% for 120 hours.
In addition, another sample of 10-50 grams of crystalline Form B was maintained at a temperature of 22±2° C. and relative humidity of 0% for 120 hours.
In addition, a similar sample of crystalline Form B was maintained at a temperature of 40° C. for 16 hours.

Row | change of XRPD pattern / crystal form after storage (22±2° C., relative humidity 0%, 144 hours) | change of XRPD pattern / crystal form after storage (40° C., 25 minutes) | change of XRPD pattern / crystal form after storage (22±2° C., relative humidity 59%, 120 hours) | Compound | change of XRPD pattern / crystal form after storage (22±2° C., relative humidity 59%, 144 hours) | change of XRPD pattern / crystal form after storage (22±2° C., relative humidity 0%, 120 hours) | change of XRPD pattern / crystal form after storage (40° C., 16 hours)
1 | remained substantially unchanged | lack of significant change | – | NC(=O)CCC/C=C\C[C@@H]1[C@@H](/C=C/[C@@H](O)CCc2cc(Cl)sc2Cl)[C@H](O)C[C@@H]1O [Form A, 7-[3α,5α-dihydroxy-2-(3α-hydroxy-5-(3-(2,5-dichloro)thienyl)-1E-pentenyl)cyclopentyl]-5Z-heptenamide] | a substantial portion of crystalline Form A had converted to crystalline Form B | – | –
2 | – | – | remained substantially unchanged | NC(=O)CCC/C=C\C[C@@H]1[C@@H](/C=C/[C@@H](O)CCc2cc(Cl)sc2Cl)[C@H](O)C[C@@H]1O [Form B, 7-[3α,5α-dihydroxy-2-(3α-hydroxy-5-(3-(2,5-dichloro)thienyl)-1E-pentenyl)cyclopentyl]-5Z-heptenamide] | – | poorly-crystalline mixture of Forms A and B | a substantial portion of crystalline Form B had converted to the amorphous form
